Experimental data published in PubChem BioAssay AID1963436 (Molecular Pharmacology Branch, DTP, NCI, 2024).

Test system: OVCAR-5 complex spheroid (HUVEC/MSC), viability % T/C
Assay: Anticancer human tumor OVCAR-5 cell line growth inhibition [Asc];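 also: spheroids exposed to agents for 7 days before readout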;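 as to viability, T/C: 100% = DMSO vehicle-treated wells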
Conditions: for IC50: curve of first compound; for viability, T/C: stronger effect = lower value
Procedure, shortened: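 Tumor cells were grown as complex spheroids with human endothelial cells (HUVEC) and human mesenchymal stem cells as stroma. Agents were tested alone and in combination, in half-log steps down from the clinical Cmax, or from 10 microM where Cmax was unknown.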

[1] = second compound 0.1 µM, first compound 0.0316 µM
[2] = second compound 0.1 µM, first compound 0.1 µM
[3] = second compound 0.316 µM, first compound 0.0316 µM
[4] = second compound 0.316 µM, first compound 0.1 µM
[5] = second compound 1 µM, first compound 0.0316 µM
[6] = second compound 1 µM, first compound 0.1 µM

**Q.** `Cn1ncnc1[C@H]1c2n[nH]c(=O)c3cc(F)cc(c23)N[C@@H]1c1ccc(F)cc1` + Cc1c(S(C)(=O)=O)c(-c2cc(F)cc(N3CCN(c4ccc(NS(=O)(=O)c5ccc(NC(CCN6CCC(C(=O)OCCCP(=O)(O)O)CC6)CSc6ccccc6)c(S(=O)(=O)C(F)(F)F)c5)cc4)CC3)c2)c(-c2ccc(Cl)cc2)n1C(C)C was tested. Which IC50 (second compound 0.1 µM) did it give?
**A.** > 0.1 µM

**Q.** And the IC50 (second compound 0.316 µM)?
**A.** > 0.1 µM

**Q.** What about the IC50 (second compound 1 µM) of the same compound?
**A.** > 0.1 µM

**Q.** And the IC50 (second compound 3.16 µM)?
**A.** > 0.1 µM

**Q.** And the IC50 (second compound 10 µM)?
**A.** > 0.1 µM

**Q.** What about the viability, T/C (second compound 0.1 µM, first compound 0.000316 µM) of the same compound?
**A.** 99%

**Q.** What about the viability, T/C (second compound 0.1 µM, first compound 0.001 µM) of the same compound?
**A.** 101%

**Q.** And the viability, T/C (second compound 0.1 µM, first compound 0.00316 µM)?
**A.** 100%

**Q.** And the viability, T/C (second compound 0.1 µM, first compound 0.01 µM)?
**A.** 82.9%

**Q.** And the viability, T/C [1]?
**A.** 86%

**Q.** What about the viability, T/C [2] of the same compound?
**A.** 91.1%

**Q.** And the viability, T/C (second compound 0.316 µM, first compound 0.000316 µM)?
**A.** 96.3%

**Q.** What about the viability, T/C (second compound 0.316 µM, first compound 0.001 µM) of the same compound?
**A.** 95%

**Q.** And the viability, T/C (second compound 0.316 µM, first compound 0.00316 µM)?
**A.** 97%

**Q.** And the viability, T/C (second compound 0.316 µM, first compound 0.01 µM)?
**A.** 89.7%

**Q.** And the viability, T/C [3]?
**A.** 89.1%

**Q.** And the viability, T/C [4]?
**A.** 74.2%

**Q.** And the viability, T/C (second compound 1 µM, first compound 0.000316 µM)?
**A.** 96.7%

**Q.** And the viability, T/C (second compound 1 µM, first compound 0.001 µM)?
**A.** 110%

**Q.** And the viability, T/C (second compound 1 µM, first compound 0.00316 µM)?
**A.** 100%

**Q.** What about the viability, T/C (second compound 1 µM, first compound 0.01 µM) of the same compound?
**A.** 91.7%

**Q.** What about the viability, T/C [5] of the same compound?
**A.** 76.5%

**Q.** And the viability, T/C [6]?
**A.** 89.2%

**Q.** And the viability, T/C (second compound 3.16 µM, first compound 0.000316 µM)?
**A.** 88.1%

**Q.** What about the viability, T/C (second compound 3.16 µM, first compound 0.001 µM) of the same compound?
**A.** 90.9%

**Q.** What about the viability, T/C (second compound 3.16 µM, first compound 0.00316 µM) of the same compound?
**A.** 91.2%

**Q.** What about the viability, T/C (second compound 3.16 µM, first compound 0.01 µM) of the same compound?
**A.** 70.1%

**Q.** And the viability, T/C (second compound 3.16 µM, first compound 0.0316 µM)?
**A.** 87.9%

**Q.** What about the viability, T/C (second compound 3.16 µM, first compound 0.1 µM) of the same compound?
**A.** 76.9%

**Q.** And the viability, T/C (second compound 10 µM, first compound 0.000316 µM)?
**A.** 117%

**Q.** What about the viability, T/C (second compound 10 µM, first compound 0.001 µM) of the same compound?
**A.** 138%

**Q.** And the viability, T/C (second compound 10 µM, first compound 0.00316 µM)?
**A.** 133%

**Q.** And the viability, T/C (second compound 10 µM, first compound 0.01 µM)?
**A.** 110%

**Q.** And the viability, T/C (second compound 10 µM, first compound 0.0316 µM)?
**A.** 97.9%

**Q.** What about the viability, T/C (second compound 10 µM, first compound 0.1 µM) of the same compound?
**A.** 102%

**Q.** Which results are given for `C=CC(=O)N1CCN(c2nc(=O)n(-c3c(C)ccnc3C(C)C)c3nc(-c4c(O)cccc4F)c(F)cc23)C(C)C1` (stereo not given) + CNC(C)C(=O)NC1CN(S(=O)(=O)c2cccc(S(=O)(=O)N3CCC4CCC(C(=O)NC(c5ccccc5)c5ccccc5)N4C(=O)C(NC(=O)C(C)NC)C3)c2)CCC2CCC(C(=O)NC(c3ccccc3)c3ccccc3)N2C1=O?
**A.** IC50 (second compound 0.01 µM): > 10 µM; IC50 (second compound 0.0316 µM): > 10 µM; IC50 (second compound 0.1 µM): > 10 µM; IC50 (second compound 0.316 µM): > 10 µM; IC50 (second compound 1 µM): > 10 µM; viability, T/C (second compound 0.01 µM, first compound 0.0316 µM): 88.4%; viability, T/C (second compound 0.01 µM, first compound 0.1 µM): 89.9%; viability, T/C (second compound 0.01 µM, first compound 0.316 µM): 85.9%; viability, T/C (second compound 0.01 µM, first compound 1 µM): 100%; viability, T/C (second compound 0.01 µM, first compound 3.16 µM): 115%; viability, T/C (second compound 0.01 µM, first compound 10 µM): 105%; viability, T/C (second compound 0.0316 µM, first compound 0.0316 µM): 74.4%; viability, T/C (second compound 0.0316 µM, first compound 0.1 µM): 84.4%; viability, T/C (second compound 0.0316 µM, first compound 0.316 µM): 83.3%; viability, T/C (second compound 0.0316 µM, first compound 1 µM): 91.2%; viability, T/C (second compound 0.0316 µM, first compound 3.16 µM): 106%; viability, T/C (second compound 0.0316 µM, first compound 10 µM): 104%; viability, T/C [1]: 76.3%; viability, T/C [2]: 87%; viability, T/C (second compound 0.1 µM, first compound 0.316 µM): 90.6%; viability, T/C (second compound 0.1 µM, first compound 1 µM): 88.2%; viability, T/C (second compound 0.1 µM, first compound 3.16 µM): 109%; viability, T/C (second compound 0.1 µM, first compound 10 µM): 103%; viability, T/C [3]: 76.4%; viability, T/C [4]: 83.5%; viability, T/C (second compound 0.316 µM, first compound 0.316 µM): 84.9%; viability, T/C (second compound 0.316 µM, first compound 1 µM): 90.4%; viability, T/C (second compound 0.316 µM, first compound 3.16 µM): 104%; viability, T/C (second compound 0.316 µM, first compound 10 µM): 109%; viability, T/C [5]: 92.9%; viability, T/C [6]: 100%; viability, T/C (second compound 1 µM, first compound 0.316 µM): 90.4%; viability, T/C (second compound 1 µM, first compound 1 µM): 96.7%; viability, T/C (second compound 1 µM, first compound 3.16 µM): 103%; viability, T/C (second compound 1 µM, first compound 10 µM): 102%
